Measured values: ChEMBL document CHEMBL1201862, “PubChem BioAssay data set” (2004)
The source made the active and inactive calls.

Key:
Cytochrome P450 2D6 = Cytochrome P450 2D6 (Homo sapiens, UniProt P10635);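 also: CYP2D6 member of a cytochrome P450 panel assay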
HEK293 [1] = assay: inhibition of NOD1-driven NF-kB reporter – cell-based, luminescence, uHTS, primary screen (AID 1578); type: functional; settings: Homo sapiens
HEK293 [2] = assay: cells; type: functional, cell-based; settings: Homo sapiens
HEK293 [3] = assay: cells; type: functional, cell-based; settings: Homo sapiens; remark: listed apart in the source
HEK293 [4] = assay: NOD2 signaling inhibitors in MDP-stimulated cells, cell-based, uHTS, luminescence (AID 2001); type: functional; settings: Homo sapiens
[5] = reduction of Shn3 3'UTR-driven luciferase in osteoblasts – cell-based, Clone20 osteoblasts, firefly luciferase, cherry-picked, dose response (AID 624132); type: functional;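 also: firefly luciferase luminescence from reporter carrying the Shn3 3'UTR in osteoblasts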
[6] = loss of viability in HepG2 cells – cell-based, CellTiter-Glo, cherry-picked, cytotoxicity control for Shn3 inhibitor project, dose response (AID 624134); type: functional
[7] = non-specific 3'UTR reporter inhibition in Clone20-Shn3RL – cell-based, Renilla luciferase, cherry-picked, counter-screen for Shn3 inhibitor project, dose response (AID 624133); type: functional
HeLa = assay: ATP-based viability loss in HeLa cells – cell-based, CellTiter-Glo luminescence, cherry-pick samples, cytotoxicity control for MITF activator project, dose response (AID 540259); type: functional; settings: Homo sapiens
Vero [8] = assay: cells; type: functional, cell-based; settings: Chlorocebus sabaeus
[9] = target: Glucose-6-phosphate 1-dehydrogenase (Homo sapiens, UniProt P11413); assay: inhibition of Homo sapiens G6PD, dose series – biochemical, fluorescence, selectivity assay for P. falciparum G6PD inhibitor project, dose response (AID 504792); type: functional
Genome polyprotein = Genome polyprotein (dengue virus type 2, UniProt P29990); assay: flavivirus cap methylation enzyme inhibition – biochemical, confirmation dose response, primary screen (AID 588689); type: functional
[10] = target: DNA (cytosine-5)-methyltransferase 1 (Homo sapiens, UniProt P26358); assay: inhibition of DNA methylation by DNMT1 – biochemical, fluorescent molecular beacon, confirmation (AID 602386); type: functional
[11] = viability loss in HeLa cells – cytotoxicity control for MgcRacGAP inhibitor project, dose response (AID 624300); type: functional
[12] = target: T1, Rac GTPase-activating protein 1 (Homo sapiens, UniProt Q9H0H5); assay: blockers of MgcRacGAP-driven Rac1 GTP hydrolysis – biochemical, ADP Hunter fluorescence, primary and confirmatory, confirmation (AID 624330); type: functional
T1 sequence (Q9H0H5 whole entry): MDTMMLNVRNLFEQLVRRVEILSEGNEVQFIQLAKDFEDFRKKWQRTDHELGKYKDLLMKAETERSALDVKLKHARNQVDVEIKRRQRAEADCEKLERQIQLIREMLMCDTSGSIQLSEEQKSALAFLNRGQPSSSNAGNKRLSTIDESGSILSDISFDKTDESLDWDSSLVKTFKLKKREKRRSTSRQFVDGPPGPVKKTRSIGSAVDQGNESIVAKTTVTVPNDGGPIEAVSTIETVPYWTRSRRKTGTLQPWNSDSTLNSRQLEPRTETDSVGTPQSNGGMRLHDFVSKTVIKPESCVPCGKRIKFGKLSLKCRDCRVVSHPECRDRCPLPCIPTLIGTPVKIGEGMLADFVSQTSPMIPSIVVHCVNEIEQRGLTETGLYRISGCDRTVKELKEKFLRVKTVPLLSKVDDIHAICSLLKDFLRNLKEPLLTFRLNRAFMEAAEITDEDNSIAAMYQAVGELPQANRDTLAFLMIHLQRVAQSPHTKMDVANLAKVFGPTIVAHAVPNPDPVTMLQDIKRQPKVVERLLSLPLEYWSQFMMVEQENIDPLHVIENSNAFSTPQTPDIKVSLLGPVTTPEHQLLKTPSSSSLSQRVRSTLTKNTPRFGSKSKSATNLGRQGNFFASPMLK

[13] = target: T2, Histone-lysine N-methyltransferase NSD2 (Homo sapiens, UniProt O96028); type: biochemical
T2 sequence (O96028 whole entry): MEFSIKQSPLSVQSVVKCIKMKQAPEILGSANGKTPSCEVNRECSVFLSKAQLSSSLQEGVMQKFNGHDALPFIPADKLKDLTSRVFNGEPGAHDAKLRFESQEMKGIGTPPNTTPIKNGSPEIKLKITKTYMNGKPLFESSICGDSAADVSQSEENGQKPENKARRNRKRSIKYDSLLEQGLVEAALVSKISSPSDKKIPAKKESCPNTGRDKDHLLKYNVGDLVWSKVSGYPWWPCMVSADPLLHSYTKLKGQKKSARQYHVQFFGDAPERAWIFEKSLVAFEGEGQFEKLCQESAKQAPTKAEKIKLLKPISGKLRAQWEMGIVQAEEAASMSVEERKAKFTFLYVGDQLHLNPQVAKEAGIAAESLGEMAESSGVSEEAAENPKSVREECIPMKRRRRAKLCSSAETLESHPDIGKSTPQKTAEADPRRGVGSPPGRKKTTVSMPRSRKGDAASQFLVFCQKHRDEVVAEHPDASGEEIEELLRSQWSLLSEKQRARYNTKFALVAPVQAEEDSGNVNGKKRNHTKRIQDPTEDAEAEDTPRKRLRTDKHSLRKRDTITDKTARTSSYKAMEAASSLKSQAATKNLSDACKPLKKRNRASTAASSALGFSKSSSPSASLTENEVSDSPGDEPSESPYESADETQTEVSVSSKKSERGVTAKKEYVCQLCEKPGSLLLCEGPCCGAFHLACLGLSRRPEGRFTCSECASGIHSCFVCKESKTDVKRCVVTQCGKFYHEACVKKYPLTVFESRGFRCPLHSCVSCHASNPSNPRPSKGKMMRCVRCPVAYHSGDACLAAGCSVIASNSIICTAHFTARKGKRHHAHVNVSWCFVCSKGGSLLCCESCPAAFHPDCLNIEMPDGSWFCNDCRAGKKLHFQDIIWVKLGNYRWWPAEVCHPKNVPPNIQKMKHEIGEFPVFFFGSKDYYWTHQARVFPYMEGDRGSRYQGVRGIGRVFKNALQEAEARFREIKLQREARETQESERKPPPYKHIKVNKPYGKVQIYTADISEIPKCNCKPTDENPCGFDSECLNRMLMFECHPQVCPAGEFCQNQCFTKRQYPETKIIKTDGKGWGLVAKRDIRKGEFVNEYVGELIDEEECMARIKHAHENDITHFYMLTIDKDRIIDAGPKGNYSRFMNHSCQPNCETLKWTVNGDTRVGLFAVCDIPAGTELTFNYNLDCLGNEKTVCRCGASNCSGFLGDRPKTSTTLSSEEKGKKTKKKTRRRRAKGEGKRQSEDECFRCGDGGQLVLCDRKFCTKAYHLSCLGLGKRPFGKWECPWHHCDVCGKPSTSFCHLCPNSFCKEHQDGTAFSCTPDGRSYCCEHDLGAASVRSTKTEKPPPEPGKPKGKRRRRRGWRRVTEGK

[14] = system: Streptococcus sp. 'group A'; assay: Streptococcus pyogenes SK(-)GAS viability under kanamycin – luminescence, BacTiterGlo, confirmation, counter-screen for streptokinase expression inhibitor project, dose response (AID 1900); type: functional, organism-based
Streptokinase A = target: T3, Streptokinase A (Streptococcus pyogenes serotype M1, UniProt P10520); assay: viability-normalized secreted streptokinase activity reduction – plasminogen activation absorbance, OD405, dose response (AID 1914); type: functional, Streptococcus pyogenes M1 GAS;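 also: secreted streptokinase activity via plasminogen activation per viability signal from cell pellet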
T3 sequence (P10520 whole entry): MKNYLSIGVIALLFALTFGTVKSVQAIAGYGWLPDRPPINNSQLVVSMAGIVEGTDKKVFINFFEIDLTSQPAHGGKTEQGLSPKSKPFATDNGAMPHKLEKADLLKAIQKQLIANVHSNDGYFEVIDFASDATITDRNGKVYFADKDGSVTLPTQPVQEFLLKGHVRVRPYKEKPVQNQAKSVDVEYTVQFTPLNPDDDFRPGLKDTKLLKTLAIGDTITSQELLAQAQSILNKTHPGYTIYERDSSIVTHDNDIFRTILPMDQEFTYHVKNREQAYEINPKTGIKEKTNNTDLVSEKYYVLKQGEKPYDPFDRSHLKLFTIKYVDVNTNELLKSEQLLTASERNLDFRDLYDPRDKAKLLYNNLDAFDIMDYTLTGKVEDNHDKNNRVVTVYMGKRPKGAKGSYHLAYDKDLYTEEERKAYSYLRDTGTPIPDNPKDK

[15] = target: Induced myeloid leukemia cell differentiation protein Mcl-1 (Homo sapiens, UniProt Q07820); type: functional
Streptococcus = assay: GAS UMAA2166 growth inhibition – luminescence, BacTiterGlo, counter-screen for streptokinase expression inhibitor project, dose response (AID 1915); type: functional, organism-based;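 also: potency for reduction of bacterial viability or growth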
Vero [16] = assay: cells; type: functional; settings: Chlorocebus sabaeus

Sequence of Cytochrome P450 2D6 (P10635 whole entry): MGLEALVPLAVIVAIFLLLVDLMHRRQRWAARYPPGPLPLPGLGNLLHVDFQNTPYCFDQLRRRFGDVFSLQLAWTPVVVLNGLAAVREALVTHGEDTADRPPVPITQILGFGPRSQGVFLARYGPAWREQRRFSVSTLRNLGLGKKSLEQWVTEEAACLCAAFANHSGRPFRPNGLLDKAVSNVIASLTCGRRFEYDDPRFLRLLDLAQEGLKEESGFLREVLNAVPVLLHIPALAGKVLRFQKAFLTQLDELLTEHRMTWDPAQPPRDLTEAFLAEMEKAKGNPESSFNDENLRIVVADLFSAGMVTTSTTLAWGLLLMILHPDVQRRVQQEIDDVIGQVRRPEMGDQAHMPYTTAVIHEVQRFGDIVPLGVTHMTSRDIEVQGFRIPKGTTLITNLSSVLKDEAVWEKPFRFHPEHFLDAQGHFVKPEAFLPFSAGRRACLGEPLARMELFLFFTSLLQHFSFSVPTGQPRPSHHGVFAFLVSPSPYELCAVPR
Sequence of Glucose-6-phosphate 1-dehydrogenase (P11413 whole entry): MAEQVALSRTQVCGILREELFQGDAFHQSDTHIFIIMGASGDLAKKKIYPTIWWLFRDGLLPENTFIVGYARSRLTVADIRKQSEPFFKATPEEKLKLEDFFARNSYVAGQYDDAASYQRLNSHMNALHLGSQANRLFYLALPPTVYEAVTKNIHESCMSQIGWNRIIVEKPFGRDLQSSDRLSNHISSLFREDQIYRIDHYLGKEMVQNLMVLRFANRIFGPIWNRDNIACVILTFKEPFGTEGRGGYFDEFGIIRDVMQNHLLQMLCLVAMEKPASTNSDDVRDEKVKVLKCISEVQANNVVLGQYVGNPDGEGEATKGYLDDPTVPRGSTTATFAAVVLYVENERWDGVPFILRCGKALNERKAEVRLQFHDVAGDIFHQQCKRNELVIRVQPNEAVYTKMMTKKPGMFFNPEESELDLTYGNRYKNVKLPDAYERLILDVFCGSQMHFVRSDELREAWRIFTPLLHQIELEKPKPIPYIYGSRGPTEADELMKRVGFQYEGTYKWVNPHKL
Sequence of Induced myeloid leukemia cell differentiation protein Mcl-1 (Q07820 whole entry): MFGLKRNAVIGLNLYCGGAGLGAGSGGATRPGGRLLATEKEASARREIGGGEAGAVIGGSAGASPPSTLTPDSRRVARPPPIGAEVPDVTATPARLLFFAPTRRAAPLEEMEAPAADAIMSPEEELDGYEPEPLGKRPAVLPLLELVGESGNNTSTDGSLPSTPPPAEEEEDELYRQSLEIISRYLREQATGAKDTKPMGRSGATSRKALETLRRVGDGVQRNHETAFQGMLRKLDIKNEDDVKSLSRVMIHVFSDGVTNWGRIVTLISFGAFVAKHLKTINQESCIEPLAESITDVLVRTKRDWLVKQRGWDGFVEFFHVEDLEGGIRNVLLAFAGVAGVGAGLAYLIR
Sequence of Genome polyprotein (P29990 2492-3391 limits assumed): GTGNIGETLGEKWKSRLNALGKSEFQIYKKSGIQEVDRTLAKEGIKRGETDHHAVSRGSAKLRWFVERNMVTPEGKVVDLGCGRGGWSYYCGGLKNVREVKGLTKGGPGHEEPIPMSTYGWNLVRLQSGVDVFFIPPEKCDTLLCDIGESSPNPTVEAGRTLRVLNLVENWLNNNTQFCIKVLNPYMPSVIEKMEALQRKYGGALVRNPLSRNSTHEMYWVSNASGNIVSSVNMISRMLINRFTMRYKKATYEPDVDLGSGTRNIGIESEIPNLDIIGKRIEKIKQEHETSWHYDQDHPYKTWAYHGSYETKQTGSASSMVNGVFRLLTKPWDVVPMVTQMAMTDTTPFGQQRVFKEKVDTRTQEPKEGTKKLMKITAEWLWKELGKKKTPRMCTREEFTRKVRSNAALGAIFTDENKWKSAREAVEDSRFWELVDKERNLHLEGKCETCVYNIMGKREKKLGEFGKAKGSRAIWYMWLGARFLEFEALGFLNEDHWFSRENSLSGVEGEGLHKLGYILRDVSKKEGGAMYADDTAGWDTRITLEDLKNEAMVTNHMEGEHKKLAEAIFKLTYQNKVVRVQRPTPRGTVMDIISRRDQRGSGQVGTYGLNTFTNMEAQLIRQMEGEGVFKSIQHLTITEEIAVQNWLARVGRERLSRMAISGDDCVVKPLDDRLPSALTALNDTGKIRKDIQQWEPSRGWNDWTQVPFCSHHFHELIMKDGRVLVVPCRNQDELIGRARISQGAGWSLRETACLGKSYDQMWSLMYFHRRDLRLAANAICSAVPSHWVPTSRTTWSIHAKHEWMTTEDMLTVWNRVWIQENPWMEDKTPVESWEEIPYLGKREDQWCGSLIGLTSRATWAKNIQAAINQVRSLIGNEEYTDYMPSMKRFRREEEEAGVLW
Sequence of DNA (cytosine-5)-methyltransferase 1 (P26358 whole entry): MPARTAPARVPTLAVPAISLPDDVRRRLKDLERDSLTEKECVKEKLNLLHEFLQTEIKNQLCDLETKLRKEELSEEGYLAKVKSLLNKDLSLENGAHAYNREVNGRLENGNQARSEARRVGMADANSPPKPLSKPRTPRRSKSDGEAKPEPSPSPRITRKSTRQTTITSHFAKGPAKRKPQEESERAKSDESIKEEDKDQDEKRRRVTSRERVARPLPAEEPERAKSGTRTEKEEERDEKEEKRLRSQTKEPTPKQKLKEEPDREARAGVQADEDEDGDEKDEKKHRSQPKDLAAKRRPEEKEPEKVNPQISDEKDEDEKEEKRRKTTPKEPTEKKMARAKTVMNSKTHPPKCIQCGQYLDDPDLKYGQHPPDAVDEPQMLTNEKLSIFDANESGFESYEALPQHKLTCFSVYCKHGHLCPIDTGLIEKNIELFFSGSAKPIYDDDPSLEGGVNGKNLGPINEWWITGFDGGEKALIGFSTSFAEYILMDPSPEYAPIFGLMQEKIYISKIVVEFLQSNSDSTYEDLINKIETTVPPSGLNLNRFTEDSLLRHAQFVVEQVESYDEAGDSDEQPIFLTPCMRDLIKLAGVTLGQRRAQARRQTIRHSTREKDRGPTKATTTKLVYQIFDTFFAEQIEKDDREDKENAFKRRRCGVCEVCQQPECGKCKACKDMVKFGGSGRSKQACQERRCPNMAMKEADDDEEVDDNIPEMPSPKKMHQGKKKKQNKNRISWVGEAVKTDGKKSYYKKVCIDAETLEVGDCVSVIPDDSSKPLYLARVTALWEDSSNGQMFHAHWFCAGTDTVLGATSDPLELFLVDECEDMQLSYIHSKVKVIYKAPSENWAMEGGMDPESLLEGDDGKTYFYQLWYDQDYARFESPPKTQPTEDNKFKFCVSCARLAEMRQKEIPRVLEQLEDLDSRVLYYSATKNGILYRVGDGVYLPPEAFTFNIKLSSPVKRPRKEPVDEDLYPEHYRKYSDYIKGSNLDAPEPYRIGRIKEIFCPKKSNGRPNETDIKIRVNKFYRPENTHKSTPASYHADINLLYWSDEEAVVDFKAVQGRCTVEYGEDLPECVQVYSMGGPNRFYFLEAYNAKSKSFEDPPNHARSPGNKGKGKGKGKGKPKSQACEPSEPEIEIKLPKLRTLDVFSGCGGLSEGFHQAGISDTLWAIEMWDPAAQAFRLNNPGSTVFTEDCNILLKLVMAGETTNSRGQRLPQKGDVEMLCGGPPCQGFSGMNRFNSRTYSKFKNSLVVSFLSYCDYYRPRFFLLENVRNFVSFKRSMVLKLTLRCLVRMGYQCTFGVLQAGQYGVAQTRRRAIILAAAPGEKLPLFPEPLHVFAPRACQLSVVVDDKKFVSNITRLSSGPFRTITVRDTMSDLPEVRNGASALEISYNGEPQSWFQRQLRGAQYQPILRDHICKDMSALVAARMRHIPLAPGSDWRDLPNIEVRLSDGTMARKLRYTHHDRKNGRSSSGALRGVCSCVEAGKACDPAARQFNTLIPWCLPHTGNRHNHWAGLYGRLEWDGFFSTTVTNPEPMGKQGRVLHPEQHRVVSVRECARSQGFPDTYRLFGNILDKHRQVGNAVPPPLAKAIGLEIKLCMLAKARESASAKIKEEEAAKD

## OCCN(CO)CO
Cytochrome P450 2D6
  AC50: inconclusive

## NS(=O)(=O)c1cc2c(cc1Cl)N=C(CCC(=O)O)N=S2(=O)O
Cytochrome P450 2D6
  AC50: inconclusive

## Cn1cc(S(=O)(=O)N2CCc3ccccc32)cc1C(=O)NC(C)(C)C
HEK293 [1]
  EC50: 3.38 µM (active)
HEK293 [2]
  IC50: 10.6 µM (active)
HEK293 [3]
  IC50: > 20 µM (inactive)
HEK293 [4]
  IC50: 12.3 µM (inactive)
[5]
  AC50: 1.25 µM (active)
[6]
  AC50: 3.56 µM (active)
[7]
  AC50: 1.37 µM (active)

## COC(=O)C1CCCCN1C(=O)c1ccc2oc(Cc3ccccc3)nc2c1 (stereo not drawn)
HeLa
  AC50: 181 µM (active)

## Cc1nn2c(-c3ccccc3)ccnc2c1-c1ccccc1
HeLa
  AC50: 34.7 µM (active)

## COc1ccc2c(c1OC)C(=O)N(c1ccc(C)cc1)C2
HeLa
  AC50: 82.3 µM (active)

## Cc1ccc(C(C)C)cc1OCC(=O)Nc1nnc(C2CC2)s1
Vero [8]
  IC50: > 25 µM (active)

## COC1=C(Br)C(=O)c2nc(C)ccc2C1=O
[9]
  IC50: 53.7 µM (inactive)
Genome polyprotein
  IC50: 3.77 µM (active)
[10]
  IC50: 8.73 µM (active)
[11]
  CC50: 100 µM (active)
[12]
  IC50: 68.1 µM (active)
[13]
  AC50: 1.71 µM (active)

## CCn1nc(C)c(NC(=O)/C=C/c2cnn(C)c2C)c1C
Cytochrome P450 2D6
  AC50: inconclusive

## O=C(O)c1ccccc1N/N=C/c1cc(Br)cc(Br)c1O
[14]
  EC50: 4.5 µM (active)
Streptokinase A
  EC50: 32.4 µM (active)
[15]
  IC50: 8.04 µM (active)
Streptococcus
  EC50: 60.6 µM (active)
Vero [8]
  IC50: 18.9 µM (active)
Vero [16]
  CC50: > 25 µM (active)
HeLa
  AC50: 57.4 µM (active)

## Cc1ccsc1/C=N\NC(=O)CC(=O)NCc1ccccc1
[9]
  IC50: > 80 µM (inactive)
